Patent US20060233887A1, “Bioactive material for use in stimulating vascularization” (The North West London Hospitals N H S Trust, priority 2003, published 2006)

Test system: human endothelial cells
Assay: In vitro angiogenesis assay (Angiogenesis Assay Kit, CD31 staining, AngioSys image analysis)
Type: cell-based
Details: 11 days
Text: To evaluate the angiogenic growth factors secreted from fibroblasts in response to 45S5 Bioglass®, a commercial angiogenesis assay (Angiogenesis Assay Kit; TCS CellWorks Ltd) was used (Donovan D et al. Comparison of three in vitro human ‘angiogenesis’ assays with capillaries formed in vivo. Angiogenesis. 2001;4:113-121; Drinkwater S L et al Effect of venous ulcer exudates on angiogenesis in vitro. Br J Surg. 2002;89:709-713; Sengupta S et al. Thymidine phosphorylase induces angiogenesis in vivo and in vitro: an evaluation of possible mechanisms. Br J Pharmacol. 2003;139:219-231). The assay was performed according to the manufacturer's instructions.
In brief, on the day of delivery from the supplier, the medium in the culture plate was replaced with optimised medium (TCS CellWorks Ltd; supplied with the kit) alone (OM); OM:conditioned medium (medium collected from human colonic fibroblasts (CCD-18co) cultured on 0 g/cm^2 or 0.3125 mg/cm^2 45S5 Bioglass® for 72 hours) at 1:1 v/v; OM containing 2 ng/ml VEGF (positive control); or OM containing 20 μM suramin (negative control). Each treatment condition was repeated in quadruplicate. The culture medium was removed on days 4, 7 and 9 of the experiment and replaced with fresh pre-equilibrated (37° C. and 5% CO2) optimised medium plus each treatment. After 11 days, the endothelial cells were stained for CD31 (TCS CellWorks Ltd) using indirect immunocytochemistry as described in the manufacturer's instructions and allowed to air-dry. Each well was divided into quadrants on the underside of the plate. Photomicrographs of each quadrant were recorded with a Nikon Eclipse TE2000-S inverted photomicroscope fitted with a digital camera using a 4× objective lens. Image analysis software (AngioSys, Foster Findlay Associates, Newcastle Upon Tyne, UK) was used for automated scoring of the assay, providing quantitative measurements of endothelial tubule development (total vessel number, total tubule length and number of junctions), as previously described (Drinkwater S L et al Effect of venous ulcer exudates on angiogenesis in vitro. Br J Surg. 2002;89:709-713; Sengupta S et al. Thymidine phosphorylase induces angiogenesis in vivo and in vitro: an evaluation of possible mechanisms. Br J Pharmacol. 2003; 139:219-231).

[1] = 20 μM suramin, vs control endothelial cells

Compound | number of endothelial tubules [1] | number of tubule junctions [1] | total tubule length [1] | number of anastomosed endothelial tubules (micrographs) (2 ng/ml VEGF, vs optimised medium alone) | endothelial tubule development (tubules, tubule length, junctions) (2 ng/ml VEGF, positive control)
Cc1ccc(C(=O)Nc2ccc(S(=O)(=O)O)c3cc(S(=O)(=O)O)cc(S(=O)(=O)O)c23)cc1NC(=O)c1cccc(NC(=O)Nc2cccc(C(=O)Nc3cc(C(=O)Nc4ccc(S(=O)(=O)O)c5cc(S(=O)(=O)O)cc(S(=O)(=O)O)c45)ccc3C)c2)c1 [suramin] | reduced | reduced | reduced | – | –
VEGF | – | – | – | visible increase | Significant increases
